Laboratory results: US20220213066A1, “SALTS OF A CLASS OF PYRIMIDINE COMPOUNDS, POLYMORPHS, AND PHARMACEUTICAL COMPOSITIONS THEREOF, PREAPRATION METHODS THEREFOR AND USES THEREOF” (INVENTISBIO CO., LTD., priority 2019, published 2022)
Structures can show the parent of a compound that is named as a salt.

Experiment: dynamic vapor absorption and desorption analysis (DVS)
Format: physicochemical
Conditions: for weight gain under 80% relative humidity / hygroscopicity of the sample: DVS, 25° C.; for hygroscopicity of the sample: graded in words; for crystalline form of the sample after the DVS test: XRPD overlay before and after DVS test
Experimental: The instrument used in dynamic vapor absorption and desorption analysis (DVS) was DVS Intrinsic (SMS, UK). The sample was placed in the sample basket of the instrument for automatic weighing, then heated to 40° C., and dried under a nitrogen stream to a dm/dt of less than 0.002%. The measurement was started after the temperature was dropped to 25° C., The instrument parameters were as follows.
Time per step: 60 min Sample temperature: 25° C. Cycle: entire cycle
Data storage rate: 5 s Total flow rate: 200 sccm Total flow rate after the test: 200 sccm

| weight gain under 80% relative humidity | hygroscopicity of the sample | crystalline form of the sample after the DVS test | Compound |
| --- | --- | --- | --- |
| about 0.41% | slightly hygroscopic | does not change | C=CC(=O)Nc1cc(Nc2nccc(-c3cn(CC(F)(F)F)c4ccccc34)n2)c(OC)cc1N(C)CCN(C)C [crystalline form I of benzenesulfonate] |
| about 0.55% | slightly hygroscopic | does not change | C=CC(=O)Nc1cc(Nc2nccc(-c3cn(CC(F)(F)F)c4ccccc34)n2)c(OC)cc1N(C)CCN(C)C [crystalline form I of p-toluenesulfonate] |
| about 0.61% | slightly hygroscopic | does not change | C=CC(=O)Nc1cc(Nc2nccc(-c3cn(CC(F)(F)F)c4ccccc34)n2)c(OC)cc1N(C)CCN(C)C [crystalline form I of phosphate] |
| about 0.57% | slightly hygroscopic | does not change | C=CC(=O)Nc1cc(Nc2nccc(-c3cn(CC(F)(F)F)c4ccccc34)n2)c(OC)cc1N(C)CCN(C)C [crystalline form I of succinate] |
| about 3.31% | hygroscopic | does not change | C=CC(=O)Nc1cc(Nc2nccc(-c3cn(CC(F)(F)F)c4ccccc34)n2)c(OC)cc1N(C)CCN(C)C [crystalline form I of sulfate] |
| about 1.86% | slightly hygroscopic | does not change | C=CC(=O)Nc1cc(Nc2nccc(-c3cn(CC(F)(F)F)c4ccccc34)n2)c(OC)cc1N(C)CCN(C)C [crystalline form III of hydrochloride] |
